The text below walks through data of patent publication US10246453B2, “Benzenesulfonamide compounds and their use as therapeutic agents” (Xenon Pharmaceuticals Inc., priority 2016, dated 2019).

Where a name gives a salt, the structure may show the parent alone. Read-outs that look alike come from different tables or passages of the source.

Data set [1] concerns the target T1, NaV1.6 (Homo sapiens (Human), UniProt Q9UQD0). The data set can be described thus: Sodium Influx Assay (Flux), NaV1.6.
For data set [2], the target named is T1, NaV1.6. The data set can be described thus: Electrophysiological Assay (EP), patch voltage clamp, NaV1.6. In kind it is cell-based. The following applies: HEK-293 cells, whole-cell patch clamp, inactivated state; arithmetic mean. (Patch clamp records ionic current or voltage across a cell membrane.)
The target in data set [3] is T2, NaV1.5 (Homo sapiens (Human), UniProt Q14524). The data set can be described thus: cell-based.
Data set [4] has as its target T3, NaV1.1 (Homo sapiens (Human), UniProt P35498). Briefly: Sodium Influx Assay (Flux), NaV1.1. It is filed as cell-based. The following applies: Trex HEK293 cells, ANG2 dye; arithmetic mean.
In data set [5] the target is T2, NaV1.5.
In data set [6] the target is T3, NaV1.1. Briefly: Electrophysiological Assay (EP), patch voltage clamp, NaV1.1. The following applies: HEK-293 cells, whole-cell patch clamp, inactivated state; arithmetic mean. In kind it is cell-based.
The target of data set [7] is T2, NaV1.5. The data set can be described thus: Sodium Influx Assay (Flux), NaV1.5. The following applies: read-out: Flux NaV1.5 IC50; Trex HEK293 cells, ANG2 dye; arithmetic mean.
[8] abbreviates: read-out: Flux NaV1.6 IC50, Trex HEK293 cells, ANG2 dye, arithmetic mean.

T1 sequence (Q9UQD0 whole entry): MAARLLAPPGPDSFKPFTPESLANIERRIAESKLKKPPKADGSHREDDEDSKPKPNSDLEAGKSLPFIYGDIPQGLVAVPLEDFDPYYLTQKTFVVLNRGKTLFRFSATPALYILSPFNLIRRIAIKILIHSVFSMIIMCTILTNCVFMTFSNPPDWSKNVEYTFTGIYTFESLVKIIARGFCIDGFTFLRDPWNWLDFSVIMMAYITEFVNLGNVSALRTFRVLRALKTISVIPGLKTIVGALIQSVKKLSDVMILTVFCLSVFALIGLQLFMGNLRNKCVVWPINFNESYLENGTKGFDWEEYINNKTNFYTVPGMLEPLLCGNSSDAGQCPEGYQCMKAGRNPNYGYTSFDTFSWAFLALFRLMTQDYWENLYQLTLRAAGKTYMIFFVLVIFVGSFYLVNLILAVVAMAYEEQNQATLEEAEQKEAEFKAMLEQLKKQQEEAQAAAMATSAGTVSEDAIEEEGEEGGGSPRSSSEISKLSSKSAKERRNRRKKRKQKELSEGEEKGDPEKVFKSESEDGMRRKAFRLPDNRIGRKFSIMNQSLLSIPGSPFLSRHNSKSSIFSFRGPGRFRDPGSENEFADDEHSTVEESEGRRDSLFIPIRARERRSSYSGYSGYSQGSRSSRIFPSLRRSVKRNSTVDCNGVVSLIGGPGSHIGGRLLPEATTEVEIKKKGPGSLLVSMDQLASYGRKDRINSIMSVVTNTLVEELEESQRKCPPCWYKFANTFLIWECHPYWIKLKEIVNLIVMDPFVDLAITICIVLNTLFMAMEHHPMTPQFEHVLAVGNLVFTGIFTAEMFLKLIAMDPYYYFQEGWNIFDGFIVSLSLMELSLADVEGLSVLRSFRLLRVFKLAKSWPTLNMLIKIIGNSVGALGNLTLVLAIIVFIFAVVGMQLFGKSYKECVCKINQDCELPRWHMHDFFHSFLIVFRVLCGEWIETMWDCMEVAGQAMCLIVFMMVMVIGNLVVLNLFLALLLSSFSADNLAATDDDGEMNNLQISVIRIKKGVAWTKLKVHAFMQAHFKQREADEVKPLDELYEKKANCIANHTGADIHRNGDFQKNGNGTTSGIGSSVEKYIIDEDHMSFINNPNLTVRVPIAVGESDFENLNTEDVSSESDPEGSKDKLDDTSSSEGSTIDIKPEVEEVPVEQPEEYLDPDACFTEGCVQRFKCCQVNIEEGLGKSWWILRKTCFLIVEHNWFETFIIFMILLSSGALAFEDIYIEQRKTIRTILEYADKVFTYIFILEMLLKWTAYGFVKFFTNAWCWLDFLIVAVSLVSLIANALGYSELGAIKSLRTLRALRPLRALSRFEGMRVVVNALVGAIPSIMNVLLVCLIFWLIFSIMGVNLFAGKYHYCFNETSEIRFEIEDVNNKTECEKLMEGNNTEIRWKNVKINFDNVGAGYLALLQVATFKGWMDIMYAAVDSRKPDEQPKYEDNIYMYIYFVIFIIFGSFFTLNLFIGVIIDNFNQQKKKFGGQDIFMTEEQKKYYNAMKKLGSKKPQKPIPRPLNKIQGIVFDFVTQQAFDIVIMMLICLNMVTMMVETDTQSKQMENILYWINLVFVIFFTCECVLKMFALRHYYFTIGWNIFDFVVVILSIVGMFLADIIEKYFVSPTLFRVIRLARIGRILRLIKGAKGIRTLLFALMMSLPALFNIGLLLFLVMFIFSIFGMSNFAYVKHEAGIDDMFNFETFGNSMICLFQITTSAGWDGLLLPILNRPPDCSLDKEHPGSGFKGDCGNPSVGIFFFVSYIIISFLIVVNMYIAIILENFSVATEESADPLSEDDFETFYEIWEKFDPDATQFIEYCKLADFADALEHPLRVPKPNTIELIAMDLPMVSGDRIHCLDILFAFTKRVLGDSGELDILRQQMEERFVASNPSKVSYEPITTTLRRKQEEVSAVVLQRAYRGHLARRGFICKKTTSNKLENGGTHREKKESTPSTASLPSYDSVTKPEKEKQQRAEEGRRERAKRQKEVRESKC
T2 sequence (Q14524 other isoform, or with tags, fused parts or gaps): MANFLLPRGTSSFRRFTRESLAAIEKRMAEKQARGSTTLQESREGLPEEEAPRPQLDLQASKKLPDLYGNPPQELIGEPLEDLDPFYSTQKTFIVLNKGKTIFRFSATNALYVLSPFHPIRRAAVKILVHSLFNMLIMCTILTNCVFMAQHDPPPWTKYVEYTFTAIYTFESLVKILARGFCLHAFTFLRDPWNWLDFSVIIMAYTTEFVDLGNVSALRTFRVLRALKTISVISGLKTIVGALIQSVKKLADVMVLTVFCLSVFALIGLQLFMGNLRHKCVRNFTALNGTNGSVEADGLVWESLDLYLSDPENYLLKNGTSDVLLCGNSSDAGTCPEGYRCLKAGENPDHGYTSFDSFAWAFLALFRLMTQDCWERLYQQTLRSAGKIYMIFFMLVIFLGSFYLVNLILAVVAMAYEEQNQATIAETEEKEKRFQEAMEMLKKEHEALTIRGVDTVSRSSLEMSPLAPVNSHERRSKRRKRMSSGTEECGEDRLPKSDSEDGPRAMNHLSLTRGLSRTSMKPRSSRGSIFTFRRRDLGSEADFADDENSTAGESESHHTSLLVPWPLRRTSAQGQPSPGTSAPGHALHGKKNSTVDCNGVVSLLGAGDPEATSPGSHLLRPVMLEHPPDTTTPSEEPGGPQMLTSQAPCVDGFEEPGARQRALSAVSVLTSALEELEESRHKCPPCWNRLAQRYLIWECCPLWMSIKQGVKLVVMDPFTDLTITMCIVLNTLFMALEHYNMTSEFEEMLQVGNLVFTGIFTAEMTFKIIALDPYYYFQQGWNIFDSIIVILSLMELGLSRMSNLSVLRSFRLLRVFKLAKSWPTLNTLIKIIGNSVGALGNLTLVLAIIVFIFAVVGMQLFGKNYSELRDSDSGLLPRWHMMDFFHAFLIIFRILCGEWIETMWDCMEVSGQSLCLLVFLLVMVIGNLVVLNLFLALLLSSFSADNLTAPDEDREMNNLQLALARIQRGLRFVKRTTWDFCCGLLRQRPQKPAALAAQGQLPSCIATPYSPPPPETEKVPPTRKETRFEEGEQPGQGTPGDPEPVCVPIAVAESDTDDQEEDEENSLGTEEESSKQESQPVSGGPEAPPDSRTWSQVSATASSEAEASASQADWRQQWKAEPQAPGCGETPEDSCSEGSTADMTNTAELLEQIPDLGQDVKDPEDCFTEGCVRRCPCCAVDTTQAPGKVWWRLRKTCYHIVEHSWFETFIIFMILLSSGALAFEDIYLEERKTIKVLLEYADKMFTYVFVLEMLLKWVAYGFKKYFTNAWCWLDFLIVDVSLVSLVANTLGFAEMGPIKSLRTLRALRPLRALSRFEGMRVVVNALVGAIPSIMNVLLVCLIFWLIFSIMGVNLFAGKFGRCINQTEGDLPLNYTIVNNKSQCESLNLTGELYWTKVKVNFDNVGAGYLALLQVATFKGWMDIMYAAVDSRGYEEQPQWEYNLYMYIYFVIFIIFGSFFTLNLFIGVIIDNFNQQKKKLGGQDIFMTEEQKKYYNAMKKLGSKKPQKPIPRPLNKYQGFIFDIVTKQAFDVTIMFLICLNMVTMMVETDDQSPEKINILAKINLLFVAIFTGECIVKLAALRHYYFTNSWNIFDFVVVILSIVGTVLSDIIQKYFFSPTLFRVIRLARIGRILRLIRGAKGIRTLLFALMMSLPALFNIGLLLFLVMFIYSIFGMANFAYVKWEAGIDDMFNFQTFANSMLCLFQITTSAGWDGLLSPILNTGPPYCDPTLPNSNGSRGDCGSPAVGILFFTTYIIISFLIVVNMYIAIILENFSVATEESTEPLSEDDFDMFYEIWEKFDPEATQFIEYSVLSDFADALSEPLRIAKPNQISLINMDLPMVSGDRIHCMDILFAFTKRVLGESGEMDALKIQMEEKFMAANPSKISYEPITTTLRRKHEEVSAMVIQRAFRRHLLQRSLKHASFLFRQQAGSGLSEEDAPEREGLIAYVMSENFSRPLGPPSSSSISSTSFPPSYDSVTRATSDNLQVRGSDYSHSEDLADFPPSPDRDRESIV

The term IC50 denotes the concentration needed to halve the response being measured. Take `C[C@@H](c1ccccc1)N1CCC(Oc2ccc(S(=O)(=O)Nc3nccs3)cc2Cl)CC1` [Example 58, (S)-3-chloro-4-((1-(1-phenylethyl)piperidin-4-yl)oxy)-N-(thiazol-2-yl)benzenesulfonamide 2,2,2-trifluoroacetate]: the concentration for half-maximal inhibition (IC50) against NaV1.6 [1] amounted to 0.402 µM; at NaV1.6 [2] it was 0.093 µM; against NaV1.5 [3], 5.58 µM.
For the compound `O=S(=O)(Nc1cscn1)c1ccc(O[C@@H]2C[C@H]3CC[C@@H](C2)N3Cc2ccc(F)c(Cl)c2)c(Cl)c1` [Example 319, 3-chloro-4-(((1R,3s,5S)-8-(3-chloro-4-fluorobenzyl)-8-azabicyclo[3.2.1]octan-3-yl)oxy)-N-(thiazol-4-yl)benzenesulfonamide formate], the figures for the half-maximal inhibitory concentration (IC50) at NaV1.1 [4], on NaV1.6 [1] (setting [8]) and against NaV1.5 [5] were 3.69 µM, 3.32 µM and 2.48 µM, respectively.
Consider `Cc1cccc(CN2CC[C@H](N(C)c3cc(F)c(S(=O)(=O)Nc4ncns4)c(F)c3C)C2)n1` [Example 296, 2,2,2-trifluoroacetate], for which the IC50 against NaV1.1 [4] is above 30 µM; at NaV1.6 [1] (setting [8]), 0.01 µM; on NaV1.6 [2], 0.002 µM; against NaV1.5 [3], above 30 µM.
On to `C[C@H](c1cc(C2CC2)ccc1F)N1CCC(Oc2ccc(S(=O)(=O)Nc3cscn3)cc2Cl)CC1` (stereo in doubt) [Example 320], for which the IC50 worked out at 4.25 µM at NaV1.1 [4], 3.24 µM against NaV1.6 [1] and 4.74 µM at NaV1.5 [3].
The matching figures for `CN(c1cc(F)c(S(=O)(=O)Nc2cscn2)cc1Cl)[C@H]1CCN(Cc2ccc3[nH]ccc3c2)C1` [Example 190, (S)-4-((1-((1H-indol-5-yl)methyl)pyrrolidin-3-yl)(methyl)amino)-5-chloro-2-fluoro-N-(thiazol-4-yl)benzene-sulfonamide formate]: 5.17 µM, 2.33 µM and 8.25 µM.
On to `CN(c1cc(F)c(S(=O)(=O)Nc2cscn2)cc1Cl)[C@H]1CCN(CCc2ccccc2)C1` [Example 179, (S)-5-chloro-2-fluoro-4-(methyl(1-phenethylpyrrolidin-3-yl)amino)-N-(thiazol-4-yl)benzene-sulfonamide formate], for which the half-maximal inhibitory concentration (IC50) against NaV1.1 [4] came out at 6.91 µM; against NaV1.6 [1] it was 4.89 µM; against NaV1.5 [3] it was 20.4 µM.
For the compound `Cc1cccc(CN2CC[C@H](N(C)c3cc(F)c(S(=O)(=O)Nc4ncns4)c(F)c3Cl)C2)n1` [Example 297, (S)-3-chloro-2,6-difluoro-4-(methyl (1-((6-methylpyridin-2-yl)methyl)pyrrolidin-3-yl)amino)-N-(1,2,4-thiadiazol-5-yl)benzenesulfonamide 2,2,2-trifluoroacetate], the IC50 against NaV1.1 [4] is above 30 µM; against NaV1.6 [1], 0.062 µM; against NaV1.6 [2], 0.012 µM; against NaV1.5 [3] it was above 30 µM.
Consider `CN(c1cc(F)c(S(=O)(=O)Nc2cscn2)cc1Cl)[C@H]1CCN(Cc2cnn(Cc3ccccc3)c2)C1` [Example 165, (S)-4-((1-((1-benzyl-1H-pyrazol-4-yl)methyl)pyrrolidin-3-yl)(methyl)amino)-5-chloro-2-fluoro-N-(thiazol-4-yl)benzene-sulfonamide formate], for which the figures for the IC50 against NaV1.1 [4], at NaV1.6 [1] and on NaV1.5 [3] were 4.61 µM, 3.34 µM and 6.97 µM, respectively.
The matching figures for `Cc1c(OC2(C)CCN(Cc3ccccc3)C2)cc(F)c(S(=O)(=O)Nc2nccs2)c1F` (racemic) [Example 228, rac-4-((1-benzyl-3-methylpyrrolidin-3-yl)oxy)-2,6-difluoro-3-methyl-N-(thiazol-2-yl)benzenesulfonamide 2,2,2-trifluoroacetate]: 5.27 µM, 0.031 µM and 23.1 µM.
For `CN(c1cc(F)c(S(=O)(=O)Nc2nccs2)cc1Cl)C1CCN(Cc2ccccc2)CC1` [Example 53, 4-((1-benzylpiperidin-4-yl)(methyl)amino)-5-chloro-2-fluoro-N-(thiazol-2-yl)benzenesulfonamide], the figures for the IC50 against NaV1.1 [4], on NaV1.6 [1] (setting [8]) and on NaV1.5 [5] were 7.41 µM, 0.601 µM and 24.5 µM, respectively.
The matching figures for `O=S(=O)(Nc1cscn1)c1ccc(O[C@@H]2C[C@H]3CC[C@@H](C2)N3Cc2cc(Cl)ccc2F)c(Cl)c1` [Example 316, 3-chloro-4-(((1R,3s,5S)-8-(5-chloro-2-fluorobenzyl)-8-azabicyclo[3.2.1]octan-3-yl)oxy)-N-(thiazol-4-yl)benzenesulfonamide formate]: 2.8 µM, 3.9 µM and 5.09 µM.
On to `CN(c1cc(F)c(S(=O)(=O)Nc2cscn2)cc1Cl)[C@H]1CCN(Cc2cccc3cccnc23)C1` [Example 170, (S)-5-chloro-2-fluoro-4-(methyl(1-(quinolin-8-ylmethyl)-pyrrolidin-3-yl)amino)-N-(thiazol-4-yl)benzene-sulfonamide formate], for which the 50% inhibitory concentration (IC50) was found to be 11.3 µM at NaV1.1 [4], 1.61 µM at NaV1.6 [1] and 21.2 µM on NaV1.5 [3].
Regarding `C[C@H](c1ccccc1)N1CCC(N(C)c2cc(F)c(S(=O)(=O)Nc3cscn3)cc2Cl)CC1` [Example 280, (R)-5-chloro-2-fluoro-4-(methyl(1-(1-phenylethyl)piperidin-4-yl)amino)-N-(thiazol-4-yl)benzenesulfonamide formate], the IC50 against NaV1.1 [4] amounted to 17.4 µM; on NaV1.6 [1] (setting [8]), 0.228 µM; at NaV1.5 [5], 27.1 µM.
In the case of `CN(c1ccc(S(=O)(=O)Nc2ncns2)cc1Cl)[C@H]1CCN(Cc2cc(F)cc(F)c2)C1` [Example 327, (S)-3-chloro-4-((1-(3,5-difluorobenzyl)pyrrolidin-3-yl)(methyl)amino)-N-(1,2,4-thiadiazol-5-yl)benzenesulfonamide formate], the IC50 was 17.3 µM on NaV1.1 [4], 1.04 µM against NaV1.6 [1] and above 30 µM on NaV1.5 [3].
The matching figures for `Cc1ccc(CN2CC[C@H](N(C)c3cc(F)c(S(=O)(=O)Nc4cscn4)cc3Cl)C2)s1` [Example 189, (S)-5-chloro-2-fluoro-4-(methyl(1-((5-methylthiophen-2-yl)methyl)pyrrolidin-3-yl)amino)-N-(thiazol-4-yl)benzene-sulfonamide formate]: 7.38 µM, 1.87 µM and 16.6 µM.
In the case of `COc1cccnc1CN1CC[C@H](N(C)c2cc(F)c(S(=O)(=O)Nc3cscn3)cc2Cl)C1` [Example 176, (S)-5-chloro-2-fluoro-4-((1-((3-methoxypyridin-2-yl)methyl)pyrrolidin-3-yl)(methyl)amino)-N-(thiazol-4-yl)benzene-sulfonamide formate], the IC50 on NaV1.1 [4] was above 30 µM; at NaV1.6 [1], 0.74 µM; on NaV1.5 [3], above 30 µM.
For the compound `Cc1cccc(CN2CC[C@H](N(C)c3ccc(S(=O)(=O)Nc4ncns4)cc3Cl)C2)c1` [Example 83, (S)-3-chloro-4-(methyl(1-(3-methylbenzyl)pyrrolidin-3-yl)amino)-N-(1,2,4-thiadiazol-5-yl)benzenesulfonamide], the IC50 was above 30 µM against NaV1.1 [4]; above 10 µM against NaV1.1 [6]; 0.029 µM on NaV1.6 [1] (setting [8]); 0.036 µM on NaV1.6 [2]; above 30 µM on NaV1.5 [7].
For `Cc1c(N(C)[C@H]2CCN(Cc3ccccc3)C2)ccc(S(=O)(=O)Nc2cscn2)c1F` [Example 321, (S)-4-((1-benzylpyrrolidin-3-yl)(methyl)amino)-2-fluoro-3-methyl-N-(thiazol-4-yl)benzenesulfonamide 2,2,2-trifluoroacetate], the IC50 at NaV1.1 [4] was 12.3 µM; against NaV1.1 [6], above 10 µM; at NaV1.6 [1] (setting [8]), 0.354 µM; at NaV1.6 [2], 0.137 µM; on NaV1.5 [7], 21.4 µM.
